Experimental data published in patent publication US20030208035A1, “Antifungal and/or antibacterial peptides, preparation methods, compositions containing same and methods of treating mammals and/or plants” (priority 2000, published 2003).
Bridges are numbered along the chain shown (N, C = ends). Where no end group is shown, it is not given here.

Assays:
C. albicans = format: cell-based, Candida albicans; conditions: 24 h
Experimental: (§1) Candida yeasts (C. albicans, C. glabrata, C. dubliensis, C. tropicalis, C. kefyr, C. krusei and C. parapsilosis—donated by Dr. H. Koenig, Hôpital Civil, Strasbourg), fluconazole-resistant C. albicans (n^o245962, n^o2332, n^o246335 and n^o3552, donated by Drs. J.Meis and J. Mouton, University Hospital, Microbiology Department, Nijmegen, Netherlands), and Cryptoccocus neoformans (donated by Dr. H. Koenig, Hôpital Civil, Strasbourg) were seeded on Sabouraud-Cloramphenicol Agar slant gelose (Biomerieux) and left to incubate for 24 h at 30° C. (Candida sp.) and for 72 h at 37° C. (Cryptoccocus neoformans).
(§2) Some yeast colonies were placed in suspension in liquid Sabouraud medium (Biomerieux) to obtain a final concentration of 0.1 OD at 600 nm corresponding to 2.5.10^6 yeasts/ml.
(§3) The yeast suspension was adjusted to 5.10^3 yeast/ml in Sabouraud medium.
(§4) 100 μl of peptide dilutions (concentration of 50 with 0.097 μg/ml peptide) were deposited in microtitration plates. After adding […] of yeast suspension with 5.10^3 yeast/ml i.e. 500 yeasts, the test plates were incubated 24 h at 30° C. (Candida) under slow shaking or 72 h at 37° C. (Cryptoccocus).
(§5) Determination of minimal inhibiting concentrations (MIC) was made by measuring absorbency at 600 nm using a spectrophotometer-microtitration plate reader. The MIC score was set at a growth inhibition rate of 50%.

[1] = tested on: Scedosporium inflatum (FSSP 7908 strain); test: Scedosporium inflatum infected model (invasive scedosporiosis), continuous infusion by osmotic pumps; format: in vivo, mice; conditions: for 50% mortality, post-infection day: controls day 7
Experimental: Swiss OF1 mice weighing 22 g were infected by intravenous route (i.v.) with a lethal dose of Scedosporium inflatum (FSSP 7908 strain cultured on Malt Agar gelose for 7 days at 37° C.). The infecting dose was 7.10^6 spores per mouse, injected in a volume of 100 μl via the lateral tail vein.
Peptides pEM35 and pEM51 were administered continuously using ALZET 1003D osmotic pumps (flow rate: 0.97 μl/h; volume: 93 μl; infusion time: 4 days) and 1007D pumps (flow rate: 0.47 μl/h; volume: 100 μl; infusion time: 8 and half days) with intraperitoneal insertion
Groups of 8 infected mice were treated either with:
c) with pEM51 delivered i.p. by 1007D pumps at a dose of 30 mg/kg for 8 days, corresponding to a theoretical equilibrium plasma concentration of 0.3 μg/ml;
d) with pEM51 delivered i.p. by 1003D pumps at a dose of 60 mg/kg for 4 days, corresponding to a theoretical equilibrium plasma concentration of 0.6 μg/ml;
e) with pEM35 delivered i.p. by 1003D pumps at a dose of 35 mg/kg for 4 days, corresponding to a theoretical equilibrium plasma concentration of 0.35 μg/ml.
In this model of invasive scedosporiosis, inoculation of a dose of 7.10^6 spores of Scedosporium inflatum was 50% lethal on post-infection day 7. The first death occurred at 5 days and 6 days respectively after infection for the control mice group (infected, non-treated) and the placebo group (infected and with Alzet pumps). 100% mortality was observed on day 11 in the control group and 75% mortality on day 20 for the placebo group. The state of health of the mice deteriorated rapidly on and after post-infection day 3 with a morbidity score for these two groups of 28/40 and 34/40 on day 3 and 6/40 and 7/40 on post-infection day 7. Signs of encephalitis occurred on post-infection day 4.

[2] = tested on: fluconazole-resistant C. albicans; test: microbe, parasite or virus in culture; format: cell-based, Candida albicans; conditions: fluconazole-resistant
Experimental: as §1, §2, §3, §4, §5

Sequence: DKLIGSCVWGAVNYTSNCNAECKRRGYKGGHCGSFLNVNCWCET (disulfide 7-32, 18-40, 22-42 (inferred)) [pEM35]
- MIC (C. albicans): 1.56 µg/mL
- delay of onset of the first death ([1]; 35 mg/kg for 4 days i.p. by 1003D pumps): 5 days
- delay of 50% mortality relative to control and placebo groups ([1]; 35 mg/kg for 4 days i.p. pumps): 8 days
- mice alive on day 20 (out of 8) ([1]; 35 mg/kg for 4 days i.p. pumps): 1 mouse
- morbidity score post-infection day 5 ([1]; 35 mg/kg for 4 days i.p. pumps): 28/40
- morbidity score post-infection day 15 ([1]; 35 mg/kg for 4 days i.p. pumps): 8/40
- 50% mortality, post-infection day ([1]; 35 mg/kg for 4 days i.p. pumps): 15 days

Sequence: DKLIGSCVWGAVNYTSNCRAECKRRGYKGGHCGSFANVNCWCET (disulfide 7-32, 18-40, 22-42 (inferred)) [pEM51]
- therapeutic efficacy in terms of survival ([1]; 30 mg/kg for 8 days): very good therapeutic efficacy
- delay of onset of the first death ([1]; 30 mg/kg for 8 days i.p. by 1007D pumps, 7.10^6 spores i.v., 8 mice): 9 days
- mice alive on day 20 (out of 8) ([1]; 30 mg/kg for 8 days i.p. pumps): 5 mice
- morbidity score post-infection day 5 until day 14 ([1]; 30 mg/kg for 8 days i.p. pumps): 24/40
- morbidity score post-infection day 20 ([1]; 30 mg/kg for 8 days i.p. pumps): 11/40
- morbidity score post-infection day 4 ([1]; 30 mg/kg for 8 days i.p. pumps, 40 = all 8 mice healthy): 28/40
- delay of onset of the first death ([1]; 60 mg/kg for 4 days i.p. by 1003D pumps): 4 days
- delay of 50% mortality in relation to control and placebo groups ([1]; 60 mg/kg for 4 days i.p. pumps): 5 days
- mice alive on day 20 (out of 8) ([1]; 60 mg/kg for 4 days i.p. pumps): 3 mice
- morbidity score post-infection day 5 ([1]; 60 mg/kg for 4 days i.p. pumps): 30/40
- morbidity score post-infection day 14 ([1]; 60 mg/kg for 4 days i.p. pumps): 6/40
- 50% mortality, post-infection day ([1]; 60 mg/kg for 4 days i.p. pumps): 12 days
- MIC [2]: 1.56 µg/mL
